Data reported in paper PMC6832352, “Synthesis and Glycosidase Inhibition of Broussonetine M and Its Analogues” (Molecules, 2019).

Experiments:
α-Mannosidase = target: T1, α-Mannosidase (Canavalia ensiformis, UniProt C0HJB3); experiment: glycosidase inhibition assay, jack bean α-mannosidase; assay type: biochemical
T1 construct: purchased Sigma-Aldrich Chemical Co
T1 sequence (C0HJB3 1-981): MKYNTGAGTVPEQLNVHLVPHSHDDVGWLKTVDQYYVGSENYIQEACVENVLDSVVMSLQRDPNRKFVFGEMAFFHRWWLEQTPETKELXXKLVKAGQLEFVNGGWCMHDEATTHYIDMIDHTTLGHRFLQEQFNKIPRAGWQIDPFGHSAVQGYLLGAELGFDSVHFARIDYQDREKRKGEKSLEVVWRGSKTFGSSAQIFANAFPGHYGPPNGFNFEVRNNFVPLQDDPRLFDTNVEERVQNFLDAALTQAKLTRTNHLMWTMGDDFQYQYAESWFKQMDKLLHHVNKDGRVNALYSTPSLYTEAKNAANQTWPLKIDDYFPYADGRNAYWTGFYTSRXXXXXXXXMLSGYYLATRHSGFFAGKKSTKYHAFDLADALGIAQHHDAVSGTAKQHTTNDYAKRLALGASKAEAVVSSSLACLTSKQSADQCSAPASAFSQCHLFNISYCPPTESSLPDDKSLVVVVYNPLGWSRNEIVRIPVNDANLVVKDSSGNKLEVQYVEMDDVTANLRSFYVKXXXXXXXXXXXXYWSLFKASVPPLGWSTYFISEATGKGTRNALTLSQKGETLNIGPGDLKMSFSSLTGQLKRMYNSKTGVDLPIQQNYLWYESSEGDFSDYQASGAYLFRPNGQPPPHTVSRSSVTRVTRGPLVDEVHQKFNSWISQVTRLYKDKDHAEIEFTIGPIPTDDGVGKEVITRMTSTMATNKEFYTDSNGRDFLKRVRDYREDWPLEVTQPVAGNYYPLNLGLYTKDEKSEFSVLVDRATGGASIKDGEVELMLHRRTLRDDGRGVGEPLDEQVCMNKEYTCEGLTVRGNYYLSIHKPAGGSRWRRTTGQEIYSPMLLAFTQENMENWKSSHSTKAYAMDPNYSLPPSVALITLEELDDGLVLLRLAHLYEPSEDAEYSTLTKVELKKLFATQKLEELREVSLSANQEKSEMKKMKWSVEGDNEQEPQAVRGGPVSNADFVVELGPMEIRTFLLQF
Method: (§1) With rat intestinal maltase as an exception, other enzymes were purchased from Sigma-Aldrich Chemical Co. (St. Louis, Mo. USA). Brush border membranes prepared from rat small intestine according to the method of Kessler et al. were assayed at pH 6.8 for rat intestinal maltase using maltose. The released D-glucose was determined colorimetrically using the Glucose CII-test Wako (Wako Pure Chemical Ind.; Osaka, Japan). Other glycosidase activities were determined using an appropriate p-nitrophenyl glycoside as substrate in a buffer solution at the optimal pH value of each enzyme. The reaction was stopped by adding 400 mM Na2CO3. The released p-nitrophenol was measured spectrometrically at 400 nm.

β-Glucuronidase = target: T2, β-Glucuronidase (Bos taurus, UniProt A3KMY8); experiment: glycosidase inhibition assay, bovine liver β-glucuronidase; assay type: biochemical; settings: for IC50: β-Glucuronidase, Bovine liver
T2 construct: purchased Sigma-Aldrich Chemical Co; host or cells: bovine liver
T2 sequence (A3KMY8 1-652): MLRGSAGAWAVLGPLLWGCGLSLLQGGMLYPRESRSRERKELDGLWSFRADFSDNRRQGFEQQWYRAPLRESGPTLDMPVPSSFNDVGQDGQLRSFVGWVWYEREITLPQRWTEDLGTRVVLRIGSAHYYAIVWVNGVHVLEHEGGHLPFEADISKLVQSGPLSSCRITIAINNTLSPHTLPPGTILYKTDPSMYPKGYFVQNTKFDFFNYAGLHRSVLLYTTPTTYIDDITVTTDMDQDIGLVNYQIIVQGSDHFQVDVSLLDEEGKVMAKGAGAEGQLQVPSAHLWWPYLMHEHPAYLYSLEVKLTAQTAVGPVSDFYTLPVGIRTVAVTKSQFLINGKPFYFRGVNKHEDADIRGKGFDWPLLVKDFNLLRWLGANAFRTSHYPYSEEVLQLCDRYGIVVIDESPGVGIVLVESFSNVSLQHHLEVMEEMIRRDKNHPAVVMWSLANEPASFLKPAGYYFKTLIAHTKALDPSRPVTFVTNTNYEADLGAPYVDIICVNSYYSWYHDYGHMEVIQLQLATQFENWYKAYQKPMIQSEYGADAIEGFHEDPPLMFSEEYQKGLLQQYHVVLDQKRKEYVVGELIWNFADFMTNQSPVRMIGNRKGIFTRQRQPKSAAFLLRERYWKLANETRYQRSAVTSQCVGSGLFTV
Method: as §1

β-Galactosidase = settings: β-galactosidase from bovine liver; natural product isolated by Kusano’s group; cited from earlier work
β-Glucosidase = target: T3, β-Glucosidase (Bos taurus, UniProt F1MNT6); experiment: glycosidase inhibition assay, bovine liver β-glucosidase; assay type: biochemical
T3 sequence (F1MNT6 1-469): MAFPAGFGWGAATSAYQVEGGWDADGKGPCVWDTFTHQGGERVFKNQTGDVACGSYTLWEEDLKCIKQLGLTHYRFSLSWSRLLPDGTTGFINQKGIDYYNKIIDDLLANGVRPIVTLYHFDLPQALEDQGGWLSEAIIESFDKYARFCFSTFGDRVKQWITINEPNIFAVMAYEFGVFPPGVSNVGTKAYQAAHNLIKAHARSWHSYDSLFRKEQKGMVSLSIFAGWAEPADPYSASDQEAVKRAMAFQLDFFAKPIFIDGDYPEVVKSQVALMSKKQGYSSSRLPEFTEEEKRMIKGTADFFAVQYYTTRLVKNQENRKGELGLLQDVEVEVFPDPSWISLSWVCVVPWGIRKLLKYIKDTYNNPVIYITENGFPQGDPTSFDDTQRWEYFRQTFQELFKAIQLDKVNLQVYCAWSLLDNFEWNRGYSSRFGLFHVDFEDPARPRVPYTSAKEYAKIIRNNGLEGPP
Method: as §1

SMILES | IC50 (α-Mannosidase) [µM] | inhibition at 100 µM (α-Mannosidase) [%] | inhibition at 100 µM (β-Glucuronidase) [%] | IC50 (β-Glucuronidase) [µM] | IC50 (β-Galactosidase) [µM] | inhibition at 100 µM (β-Glucosidase) [%]
OCCCC(O)CCCCCCCCCC1NC(CO)C(O)C1O [2,10-di-epi-3, (2S,3R,4R,5R)-2-hydroxymethyl-3,4-dihydroxyl-5-((10S)-10,13-(dihydroxyl)dec-1-yl) pyrrolidine] | > 100 | 0.32 | 1.7 | > 100 |  | 
OCCC[C@@H](O)CCCCCCCCC[C@H]1N[C@@H](CO)[C@@H](O)[C@@H]1O [2-epi-3, (2S,3R,4R,5R)-2-hydroxymethyl-3,4-dihydroxyl-5-((10R)-10,13-(dihydroxyl)dec-1-yl) pyrrolidine] | > 100 | 0 | 5.2 | > 100 |  | 
OCCC[C@H](O)CCCCCCCCC[C@H]1N[C@H](CO)[C@@H](O)[C@@H]1O [10’-epi-3, (2R,3R,4R,5R)-2-hydroxymethyl-3,4-dihydroxyl-5-((10S)-10,13-(dihydroxyl)dec-1-yl) pyrrolidine] | > 100 | 0 | 17.2 | > 100 |  | 
OCCC[C@@H](O)CCCCCCCCC[C@H]1N[C@H](CO)[C@@H](O)[C@@H]1O [compound 3, (2R,3R,4R,5R)-2-hydroxymethyl-3,4-dihydroxyl-5-((10R)-10,13-(dihydroxyl)dec-1-yl)pyrrolidine] | > 100 | 2.5 | 18.4 | > 100 | 8.1 | 
OCCC[C@@H](O)CCCCCCCCC[C@@H]1N[C@@H](CO)[C@@H](O)[C@H]1O [ent-3,10-di-epi-3] | > 100 | 0 | 14.9 | > 100 |  | 
OCCC[C@H](O)CCCCCCCCC[C@@H]1N[C@@H](CO)[C@H](O)[C@H]1O [ent-3, (2S,3S,4S,5S)-2-hydroxymethyl-3,4-dihydroxyl-5-((10S)-10,13-(dihydroxyl)dec-1-yl) pyrrolidine] | > 100 | 2.2 | 2.3 | > 100 |  | 46.5
OCCC[C@H](O)CCCCCCCCC[C@@H]1N[C@@H](CO)[C@@H](O)[C@H]1O [ent-3-epi-3, (2S,3R,4S,5S)-2-hydroxymethyl-3,4-dihydroxyl-5-((10S)-10,13-(dihydroxyl)dec-1-yl) pyrrolidine] | > 100 | 1.3 | 0 | > 100 |  | 
OCCC[C@@H](O)CCCCCCCCC[C@@H]1N[C@@H](CO)[C@H](O)[C@H]1O [ent-10’-epi-3] | > 100 | 1.8 | 14.9 | > 100 |  | 
